{"source": "ChEMBL document CHEMBL5729003", "about": "“Dihydropyrimidine compounds and uses thereof in medicine” (2022)", "experiment": "Old liquid medium can be removed and replaced with new medium (200 μL) on day 0.Formulating the compound and treating the cells in the experiment of anti virus: the compound was dissolved in DMSO to a concentration of 30 mM, and then the compound solution was diluted with DMSO to a concentration of […], and then eight dilutions at 4 fold were performed, the highest concentration is 800 μM. The serial diluted compound was added to the above plate at 1 μL per well, the highest final concentration in the experiment is 4 μM (200 fold dilution). TDF (tenofovir dipiroxil fumarate, Selleck, Cat S1400) has a highest concentration of 4 μM as a positive control. […] at a final concentration of 0.5%, TDF was added in to the positive control well at a final concentration of 1 μM.Detection of Viral Genomic DNA by qPCRPrimer: HBV-For-202, […]; HBV-Rev-315, […]. Copies of virus can be calculated using a standard curve plotted by using plasmid containing HBV genome and using SYBR Premix Ex Taq II Takara DRR081S kit and 1 μL cell culture supernatant as a template. EC50 values of the compound on viral replication were calculated by a four parametric nonlinear regression model using Graphpad Prism 5 software to manage concentration—viral copy number.", "settings": "HepG2.2.15", "note": "pEC50: −log10 of the molar value."}
{"smiles": "COC[C@@H]1[C@H]2CN(c3ccc(C(C)(C)OC=O)cc3)C(=O)N2CCN1CC1=C(C(=O)OC)[C@H](c2ccc(F)cc2Cl)N=C(c2nccs2)N1", "values": [{"measurement": "pEC50", "result": 8.30}]}
